Key:
[1] = test system: antibodies in sera from SARS patients (sera 1a, 1b, 2, 6, 37, 62, London, SARS-yellow, SARS-green); format: binding, human; parameters: Binding of serum 6 to linear peptides of protein X1 of SARS-CoV Urbani / Binding of serum 37 to linear peptides of protein X1 of SARS-CoV Urbani / Binding of serum 6 to looped/cyclic peptide (PEPSCAN-ELISA) / Binding of serum 37 to looped/cyclic peptide (PEPSCAN-ELISA) / Binding of serum 37 to looped/cyclic peptides of protein X1 of SARS-CoV Urbani / Binding of serum 6 to linear peptides of protein X2 / Binding of serum 37 to linear peptides of protein X2 / Binding of serum 37 to looped/cyclic peptides of protein X2 of SARS-CoV Urbani / Binding of serum 6 to linear peptides of protein M of SARS-CoV Urbani / Binding of serum 37 to linear peptides of protein M of SARS-CoV Urbani / Binding of serum 6 to looped/cyclic peptides of protein M of SARS-CoV Urbani / Binding of serum 37 to looped/cyclic peptides of protein M of SARS-CoV Urbani / Binding of serum 6 to linear peptides of protein X3 of SARS-CoV Urbani / Binding of serum 37 to linear peptides of protein X3 of SARS-CoV Urbani / Binding of serum 37 to looped/cyclic peptides of protein X3 of SARS-CoV Urbani / Binding of serum 6 to linear peptides of protein X4 of SARS-CoV Urbani / Binding of serum 37 to linear peptides of protein X4 of SARS-CoV Urbani / Binding of serum 37 to looped/cyclic peptides of protein X4 of SARS-CoV Urbani / Binding of serum 6 to linear peptides of protein X5 of SARS-CoV Urbani / Binding of serum 37 to linear peptides of protein X5 of SARS-CoV Urbani / Binding of serum 37 to looped/cyclic peptides of protein X5 of SARS-CoV Urbani / Binding of serum 6 to linear peptides of protein N of SARS-CoV Urbani / Binding of serum 37 to linear peptides of protein N of SARS-CoV Urbani / Binding of serum 6 to linear peptide (PEPSCAN-ELISA) / Binding of serum 1a to looped/cyclic peptides of protein N of SARS-CoV Urbani / Binding of serum 1b to looped/cyclic peptides of protein N of SARS-CoV Urbani / Binding of serum 2 to looped/cyclic peptides of protein N of SARS-CoV Urbani / Binding of serum 6 to looped/cyclic peptides of protein N of SARS-CoV Urbani / Binding of serum 37 to looped/cyclic peptides of protein N of SARS-CoV Urbani / Binding of serum 62 to looped/cyclic peptides of protein N of SARS-CoV Urbani / Binding of serum London to looped/cyclic peptides of protein N of SARS-CoV Urbani / Binding of serum SARS-green to looped/cyclic peptides of protein N of SARS-CoV Urbani: unit not given here
[2] = test system: control sera (pooled serum of ten healthy LUMC hospital workers; commercial negative donor pooled serum from the Dutch bloodbank); format: binding, human; parameters: Binding of Control serum LUMC to linear peptides / Binding of Control serum Blood-bank to linear peptides / Binding of Control serum LUMC to looped peptides / Binding of Control Serum Blood-Bank to Looped peptides / Binding of Control serum LUMC to linear peptides of the protein M of SARS-CoV Urbani / Binding of Control serum Blood-bank to linear peptides of the protein M of SARS-CoV Urbani / Binding of Control serum LUMC to looped peptides of the protein M of SARS-CoV Urbani / Binding of Control Serum Blood-Bank to Looped peptides of the protein M of SARS-CoV Urbani: unit not given here
[3] = test system: rabbit serum obtained by immunizing a rabbit with the SARS-CoV strain Frankfurt 1; format: binding; parameters: Binding of a rabbit serum to linear peptides / Binding of a rabbit serum to looped peptides / Rabbit serum linear peptides / Rabbit serum looped peptides / Binding of a rabbit serum to linear peptides of protein N of SARS-CoV Urbani (Rabbit serum linear peptides) / Binding of a rabbit serum to looped/cyclic peptides of protein N of SARS-CoV Urbani (Rabbit serum looped peptides): unit not given here

LSLLKVTAFQHQNSK
Binding of serum 1a to linear peptides of protein X2 [1]: 0.4
Binding of serum 1a to looped/cyclic peptides of protein X2 of SARS-CoV Urbani [1]: 0.3
Binding of serum 1b to linear peptides of protein X2 [1]: 0.1
Binding of serum 1b to looped/cyclic peptides of protein X2 of SARS-CoV Urbani [1]: 0.2
Binding of serum 2 to linear peptides of protein X2 [1]: 0.1
Binding of serum 2 to looped/cyclic peptides of protein X2 of SARS-CoV Urbani [1]: 0.1
Binding of serum 6 to linear peptides of protein X2 [1]: 0.2
Binding of serum 6 to looped/cyclic peptides of protein X2 of SARS-CoV Urbani [1]: 0.1
Binding of serum 37 to linear peptides of protein X2 [1]: 0.4
Binding of serum 37 to looped/cyclic peptides of protein X2 of SARS-CoV Urbani [1]: 0.2
Binding of serum 62 to linear peptides of protein X2 [1]: 0.2
Binding of serum 62 to looped/cyclic peptides of protein X2 of SARS-CoV Urbani [1]: 0.3
Binding of serum London to linear peptides of protein X2 [1]: 0.2
Binding of serum London to looped/cyclic peptides of protein X2 of SARS-CoV Urbani [1]: 0.1
Binding of serum SARS-green to linear peptides of protein X2 [1]: 0.1
Binding of serum SARS-green to looped/cyclic peptides of protein X2 of SARS-CoV Urbani [1]: 0.1
Binding of serum SARS-yellow to linear peptides of protein X2 [1]: 0.0
Binding of serum SARS-yellow to looped/cyclic peptides of protein X2 of SARS-CoV Urbani [1]: 0.2
Binding of Control Serum Blood-Bank to Looped peptides [2]: 0.4
Binding of Control serum Blood-bank to linear peptides [2]: 0.1
Binding of Control serum LUMC to linear peptides [2]: 0.4
Binding of Control serum LUMC to looped peptides [2]: 0.3
Binding of a rabbit serum to linear peptides [3]: 0.4
Binding of a rabbit serum to looped peptides [3]: 0.3

YVVVHGYFTEVYYQL
Binding of serum 1a to linear peptides of protein X1 of SARS-CoV Urbani [1]: 0.7
Binding of serum 1a to looped/cyclic peptides of protein X1 of SARS-CoV Urbani [1]: 0.6
Binding of serum 1b to linear peptides of protein X1 of SARS-CoV Urbani [1]: 0.6
Binding of serum 1b to looped/cyclic peptides of protein X1 of SARS-CoV Urbani [1]: 0.5
Binding of serum 2 to linear peptides of protein X1 of SARS-CoV Urbani [1]: 0.5
Binding of serum 2 to looped/cyclic peptides of protein X1 of SARS-CoV Urbani [1]: 0.5
Binding of serum 6 to linear peptides of protein X1 of SARS-CoV Urbani [1]: 0.3
Binding of serum 6 to looped/cyclic peptides of protein X1 of SARS-CoV Urbani [1]: 0.3
Binding of serum 37 to linear peptides of protein X1 of SARS-CoV Urbani [1]: 0.5
Binding of serum 37 to looped/cyclic peptides of protein X1 of SARS-CoV Urbani [1]: 0.4
Binding of serum 62 to linear peptides of protein X1 of SARS-CoV Urbani [1]: 0.4
Binding of serum 62 to looped/cyclic peptides of protein X1 of SARS-CoV Urbani [1]: 0.4
Binding of serum London to linear peptides of protein X1 of SARS-CoV Urbani [1]: 0.2
Binding of serum London to looped/cyclic peptides of protein X1 of SARS-CoV Urbani [1]: 0.2
Binding of serum SARS-green to linear peptides of protein X1 of SARS-CoV Urbani [1]: 0.1
Binding of serum SARS-green to looped/cyclic peptides of protein X1 of SARS-CoV Urbani [1]: 0.2
Binding of serum SARS-yellow to linear peptides of protein X1 of SARS-CoV Urbani [1]: 0.2
Binding of serum SARS-yellow to looped/cyclic peptides of protein X1 of SARS-CoV Urbani [1]: 0.4
Binding of Control Serum Blood-Bank to Looped peptides [2]: 0.5
Binding of Control serum Blood-bank to linear peptides [2]: 0.4
Binding of Control serum LUMC to linear peptides [2]: 1.0
Binding of Control serum LUMC to looped peptides [2]: 0.9
Binding of a rabbit serum to linear peptides [3]: 0.1
Binding of a rabbit serum to looped peptides [3]: 0.5

ACLCKHKKVSTNLCT
Binding of serum 1a to looped/cyclic peptides of protein X2 of SARS-CoV Urbani [1]: 0.3
Binding of serum 1b to looped/cyclic peptides of protein X2 of SARS-CoV Urbani [1]: 0.3
Binding of serum 2 to looped/cyclic peptides of protein X2 of SARS-CoV Urbani [1]: 0.2
Binding of serum 6 to looped/cyclic peptides of protein X2 of SARS-CoV Urbani [1]: 0.2
Binding of serum 37 to looped/cyclic peptides of protein X2 of SARS-CoV Urbani [1]: 0.3
Binding of serum 62 to looped/cyclic peptides of protein X2 of SARS-CoV Urbani [1]: 0.4
Binding of serum London to looped/cyclic peptides of protein X2 of SARS-CoV Urbani [1]: 0.2
Binding of serum SARS-green to looped/cyclic peptides of protein X2 of SARS-CoV Urbani [1]: 0.3
Binding of serum SARS-yellow to looped/cyclic peptides of protein X2 of SARS-CoV Urbani [1]: 0.3
Recognition of the peptide by sera of SARS-CoV infected individuals, and form (linear, looped/cyclic) in which it is recognized [1]: recognized in linear form
Binding of Control Serum Blood-Bank to Looped peptides [2]: 0.2
Binding of Control serum Blood-bank to linear peptides [2]: 0.9
Binding of Control serum LUMC to linear peptides [2]: 0.8
Binding of Control serum LUMC to looped peptides [2]: 0.3
Binding of a rabbit serum to linear peptides [3]: 0.3
Binding of a rabbit serum to looped peptides [3]: 0.3

Reference: patent US20070128217A1 (priority 2003, published 2007)
